Read-outs that look alike come from different tables or passages of the source.
How the values were obtained:
mice = system: mice; design: method as in ref 20 (Halberstadt et al. 2020); conditions: ref 20 (Halberstadt et al. 2020), cited from earlier work; for HTR in mice ED50 (95% CI): i.p.
C57BL/6 J mice = assay: Head-twitch response (HTR) dose-response in mice, 30-min session; assay type: in vivo, mouse; conditions: for HTR (count/30 min): mean ± SEM; for ED50: Mus musculus, sc, 0.5 h, read-out: HTR in mice ED50 (95% CI), ascending phase of dose-response curve
Protocol: Behavioral studies were conducted as previously described with minor modifications. Male C57BL/6 J mice (The Jackson Laboratory #000664, 24 mice/drug) were purchased at 8 weeks old, group housed for acclimation (3–5 per cage for 1–2 weeks) under a 12:12 light:dark cycle (07:00 local time = lights on), with ad libitum access to food and water at the NIDA IRP facilities in Baltimore, MD, USA. All experiments were approved by the NIDA IRP Animal Care and Use Committee. After acclimation to the vivarium facilities, each mouse was briefly anesthetized with isoflurane and a temperature transponder (14 × 2 mm, model IPTT-300, Bio Medic Data Systems, Inc., Seaford, DE, USA) was implanted subcutaneously (s.c.) on the back, posterior to the shoulder blades. After the implant, mice were single housed and allowed one week recovery prior to the start of experiments. […] Drugs were randomly assigned and administered s.c. as the weight of the form used at an injection volume of 0.01 mL/g body weight.
During experimental testing, mice were tested once every 1–2 weeks to avoid potential tolerance to behavioral effects of the test drugs and were tested 2–3 times in total per drug. Each test session began with a brief 5 min acclimation period to the testing arenas, followed by recording baseline body temperature using a handheld wand that was sensitive to the signals emitted from the s.c. transponder. After this, mice were injected s.c. with appropriate doses of test drug and returned to the chambers for a 30-min test session. During the dose-response sessions, locomotor activity was continuously recorded using open field chambers with photobeam arrays (Coulbourn Instruments, Holliston, MA, USA) that were modified with cylindrical inserts and custom floor panels that also allowed video recordings of each mouse to later quantify HTR activity (GoPro Hero 7 camera; 960p resolution at 120 frames per second). Videos for each mouse were analyzed post session using commercially available software used to quantify HTR as previously described.
(§1) Data analysis was performed with Prism software (version 10.1.2, GraphPad Software, Boston, MA, USA). The IC50 values from the radioligand binding assays were determined by nonlinear regression, using three independent concentration-response curves fitted to a one-site model. The Cheng-Prusoff equation was used to calculate Kᵢ values for the competing ligands. EC50 values were determined by applying nonlinear regression to concentration-response curves. Bias factors (β) were calculated based on the relative intrinsic activity approach. More detailed information can be found in the Supplementary information. Mean values for total number of HTR, change in body temperature from pre to post session (Δ°C), and total distance traveled (cm) for each drug dose were compared (p < 0.05) via Welch’s ANOVA with Dunnett’s T3 post test, comparing all doses to respective vehicle controls (0 mg/kg). Welch’s ANOVA with Dunnett’s T3 post test was also used to compare drug concentrations, but the data were compared to DOM in this case. Dose–response relationships for HTR and locomotor activities were plotted using bell-shaped curve fits, while temperature change data were plotted using four-parameter non-linear regression curve fits. The ascending phase of the HTR curve for each drug was used to determine ED50 potency values from four parameter non-linear regression fits. For combined DOM and DOAM administration, the plasma, brain tissue, and brain dialysate drug concentrations were compared using paired t-tests (p < 0.05). Ratios were compared using Holm-Sidak’s post hoc test following a repeated-measures one-way ANOVA (F (1.709, 6.835) = 70.80; p < 0.0001).
Locomotor activity and body temperature were also assessed to monitor other pharmacological effects of the drugs that may impact the HTR. […]

[1] = In vivo microdialysis (striatum) with plasma and brain levels after co-administration of DOM and DOAM; design: species or system mouse; conditions: 0.5 mg/kg s.c. each; for Dialysate concentration (striatal microdialysis) after co-administration of DOM and DOAM: dialysate collected 30 min post injection, detection limit 0.04 ng/mL; for concentration at 30 min: both sexes, C57BL/6JRj, mouse, subcutaneous, 30 min post injection, mice
Protocol: Microdialysis experiments were conducted as previously reported with minor modifications; involved procedures were approved by the Cantonal Veterinary Office Basel-Stadt, in accordance with Swiss law. Three male and two female C57BL/6JRj mice (Janvier Labs, France) aged 11–14 weeks were used. During stereotactic surgeries, a guide cannula (CMA7; CMA Microdialysis AB, Sweden) directed to the striatum was implanted at 0.6 AP, 1.8 ML and -1.5 DV from bregma and fixed with dental cement. On the day of microdialysis, a microdialysis probe (CMA7, 3-mm probe length) was inserted into the guide cannula and perfused with artificial cerebrospinal fluid (119 mM NaCl, 11 mM D-glucose, 26.2 mM NaHCO3, 2.5 mM KCl, 1.3 mM MgCl2, 1 mM NaH2PO4, and 2.5 mM CaCl2) at 1 µL/min. The dialysate was collected for 30 min before s.c. injection of a mixture of DOM and DOAM (dissolved in DMSO/Tween80/saline; 1:1:18) yielding a dose of 0.5 mg/kg body weight for each substance. The dialysate post injection was collected for 30 min followed by decapitation under isoflurane anesthesia. Plasma obtained from trunk blood and homogenates of the forebrains (0.5 g brain tissue per 1 mL ice-cold water) were prepared for LC–MS/MS analysis. One hemisphere of the brain from each mouse was fixed in 4% paraformaldehyde, sectioned, and stained with Hoechst dye (2 µg/mL for 30 min) to confirm the placement of the microdialysis probe in the striatum. After running microdialysis in one or two mice, the recoveries of the microdialysis probes were assessed by collecting dialysate for 15 min at 1 µL/min with the probe immersed in a mixture of DOM and DOAM (1 µg/mL each; in artificial cerebrospinal fluid).
as §1

[2] = brain (forebrain homogenate), read-out: Brain tissue level after co-administration of DOM and DOAM
[3] = plasma, read-out: Plasma level after co-administration of DOM and DOAM

Row | SMILES | HTR in mice ED50 (95% CI) (mice) | HTR in mice Emax (mice) [total HTR count] | HTR (count/30 min) (C57BL/6 J mice; 0.03 mg/kg s.c.) [count] | HTR (count/30 min) (C57BL/6 J mice; 0.1 mg/kg s.c.) [count] | HTR (count/30 min) (C57BL/6 J mice; 0.3 mg/kg s.c.) [count] | HTR (count/30 min) (C57BL/6 J mice; 1 mg/kg s.c.) [count] | HTR (count/30 min) (C57BL/6 J mice; 3 mg/kg s.c.) [count] | HTR (count/30 min) (C57BL/6 J mice; 10 mg/kg s.c.) [count] | HTR (count/30 min) (C57BL/6 J mice; 30 mg/kg s.c.) [count] | ED50 (C57BL/6 J mice; s.c., 30 min session) [mg/kg] | HTR in mice Emax (C57BL/6 J mice; s.c., 30 min session) [total HTR count] | HTR in mice Maximum rate (C57BL/6 J mice; s.c., 30 min session) [HTR count/5 min] | HTR (count/30 min) (C57BL/6 J mice; 0.01 mg/kg s.c.) [count] | Fold higher total HTR counts of DOM vs DOAM (C57BL/6 J mice; mouse, in vivo) [fold] | Peak HTR rate (C57BL/6 J mice; s.c., 30 min session) [events/5 min] | Time of peak HTR rate post drug administration (C57BL/6 J mice; s.c., 30 min session) [min] | Dialysate concentration (striatal microdialysis) after co-administration of DOM and DOAM [1] [ng/mL] | concentration at 30 min [1, 2] [ng/g] | concentration at 30 min [1, 3] [ng/mL]
1 | CCc1cc(OC)c(CC(C)N)cc1OC (centres unmarked) [DOET, 4-ethyl-2,5-dimethoxyamphetamine] | 0.20 (0.11–0.36) mg/kg | 122 | – | – | – | – | – | – | – | – | – | – | – | – | – | – | – | – | –
2 | CCCCc1cc(OC)c(CC(C)N)cc1OC (centres unmarked) [DOBU, 4-butyl-2,5-dimethoxyamphetamine] | 1.17 mg/kg | – | 6.0 ± 0.9 | 9.0 ± 1.7 | 12.7 ± 1.3 | 40.2 ± 2.9 | 78.7 ± 6.2 | 69.3 ± 4.7 | 17.5 ± 4.5 | 1.29 | 79 | 16 | – | – | – | – | – | – | –
3 | CCCc1cc(OC)c(CC(C)N)cc1OC.Cl (centres unmarked) [DOPR, 4-propyl-2,5-dimethoxyamphetamine hydrochloride] | – | – | 9.7 ± 2.2 | 22.7 ± 2.8 | 53.6 ± 2.9 | 98.2 ± 2.3 | 58.0 ± 9.6 | 21.2 ± 3.0 | – | 0.42 | 98 | 20 | 6.2 ± 0.9 | – | – | – | – | – | –
4 | COc1ccc(OC)c(CC(C)N)c1.Cl (centres unmarked) [2,5-DMA, 2,5-Dimethoxyamphetamine hydrochloride] | – | – | 5.8 ± 1.9 | 6.7 ± 0.7 | 7.3 ± 1.2 | 11.7 ± 2.1 | 15.3 ± 0.6 | 23.2 ± 1.9 | 16.2 ± 5.0 | 1.39 | 23 | 5 | – | – | – | – | – | – | –
5 | COc1cc(CC(C)N)c(OC)cc1C (centres unmarked) [DOM, 4-methyl-2,5-dimethoxyamphetamine] | – | – | 10.2 ± 1.9 | 23.4 ± 2.1 | 39.0 ± 3.3 | 90.0 ± 4.4 | 119.2 ± 9.7 | 88.0 ± 18.1 | 13.7 ± 3.9 | 0.66 | 119 | 24 | – | 2.6 | 24 | 5 to 10 | 0.82 | 463 | 26
6 | CCCCCc1cc(OC)c(CC(C)N)cc1OC (centres unmarked) [DOAM, 4-amyl-2,5-dimethoxyamphetamine] | – | – | 7.8 ± 1.6 | 6.2 ± 1.6 | 6.5 ± 1.2 | 9.5 ± 1.2 | 28.5 ± 2.6 | 44.8 ± 3.6 | 26.0 ± 3.7 | 2.76 | 45 | 9 | – | – | – | – | < 0.04 | 276 | 12
